Each structure is given as a SMILES string.

The target of this test is T1, HCV NS3 protease domain (Hepatitis C virus genotype 1b, UniProt Q9WMX2).
T1 construct: The first 181 amino acids of NS3 (residues 1027-1207 of the viral polyprotein); hexa-histidine (C); made in house; host or cells: E. coli BL21/DE3 pLysS
T1 sequence (Q9WMX2 1027-1207, other chains not shown): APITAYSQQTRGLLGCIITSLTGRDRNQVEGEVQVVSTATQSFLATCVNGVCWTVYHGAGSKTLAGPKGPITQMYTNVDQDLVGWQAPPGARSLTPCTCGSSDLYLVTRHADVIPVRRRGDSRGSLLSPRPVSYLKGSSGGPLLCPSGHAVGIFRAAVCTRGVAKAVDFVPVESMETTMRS
Description: biochemical. The settings on record: Enzyme Assay 1 (HCV NS3 Protease Domain Peptide Cleavage Assay) activity, apparent Ki class.
`CCC[C@H](NC(=O)[C@@H]1C[C@]2(CC(c3ccccc3)=NO2)CN1C(=O)[C@@H](NC(=O)Cc1cccnc1)C(C)(C)C)C(=O)C(=O)NC1CC1` [Compound 283]: the Ki was above 500 nM.

Turning to `CCC[C@H](NC(=O)[C@@H]1C[C@]2(CC(c3ccc(O)cc3)=NO2)CN1C(=O)[C@@H](NC(=O)O[C@H]1CCOC1)C(C)(C)C)C(=O)C(=O)NC1CC1` [Compound 530], the Ki is above 500 nM.

Take `CCC[C@H](NC(=O)[C@@H]1C[C@]2(CC(c3cccc(Cl)c3)=NO2)CN1C(=O)[C@@H](NC(=O)[C@](C)(O)c1ccccc1)C(C)(C)C)C(=O)C(=O)NC1CC1` [Compound 139]: the Ki is above 500 nM.

For `CCC[C@H](NC(=O)[C@@H]1C[C@]2(CC(c3cc(Cl)c(OC)cc3OC)=NO2)CN1C(=O)NCc1ccccc1)C(=O)C(=O)NC1CC1` [Compound 313], the Ki is above 500 nM.

`CCC[C@H](NC(=O)[C@@H]1C[C@]2(CC(c3cc(Cl)cc(Cl)c3)=NO2)CN1C(=O)[C@@H](NC(=O)CC1CCOCC1)C(C)(C)C)C(=O)C(=O)NC1CC1` [Compound 285]: the Ki lay within 100 to 500 nM.

As for `CCC[C@H](NC(=O)[C@@H]1C[C@]2(CC(c3ccc4c(c3)OCO4)=NO2)CN1C(=O)[C@@H](NC(=O)CC1CCOCC1)C(C)(C)C)C(=O)C(N)=O` [Compound 375], the Ki is above 500 nM.

With `CCC[C@H](NC(=O)[C@@H]1C[C@]2(CC(CC)=NO2)CN1C(=O)[C@@H](NC(=O)[C@@H](NC(=O)c1cnccn1)C1CCCCC1)C(C)(C)C)C(=O)C(=O)NC1CC1` [Compound 547], the Ki is below 100 nM.

For the compound `CCC[C@H](NC(=O)[C@@H]1C[C@]2(CC(c3c(C)oc4ccccc34)=NO2)CN1C(=O)[C@@H](NC(=O)CC1CCCCC1)C(C)(C)C)C(=O)C(=O)NC1CC1` [Compound 230], the Ki is 100 to 500 nM.

As for `CCC[C@H](NC(=O)[C@@H]1C[C@]2(CC(c3cccc(Br)c3)=NO2)CN1C(=O)[C@@H](NC(=O)OCc1ccccc1)C(C)(C)C)C(=O)C(=O)NC1CC1` [Compound 239], the Ki was 100 to 500 nM.

In the case of `CCC[C@H](NC(=O)[C@@H]1C[C@]2(CC(c3ccc(C)c(F)c3)=NO2)CN1C(=O)O[C@H]1CCOC1)C(=O)C(=O)NC1CC1` [Compound 11], the Ki was above 500 nM.

For the compound `CCC[C@H](NC(=O)[C@@H]1C[C@]2(CC(c3cccc(Cl)c3)=NO2)CN1C(=O)[C@@H](NC(=O)NC1CCN(C(=O)OCc2ccccc2)CC1)C(C)(C)C)C(=O)C(=O)NC1CC1` [Compound 261], the Ki fell in the range of 100 to 500 nM.

With `CC(C)(C)[C@H](NC(=O)OCc1ccccc1)C(=O)N1C[C@@]2(CC(c3ccc4c(c3)OCO4)=NO2)C[C@H]1C(=O)NC(CC1CCC1)C(=O)C(N)=O` (stereo partly drawn) [Compound 415], the Ki lay within 100 to 500 nM.

Take `CCC[C@H](NC(=O)[C@@H]1C[C@]2(CC(c3ccc(Cl)c(C)c3)=NO2)CN1C(=O)[C@@H](NC(=O)CC1CCOCC1)C(C)(C)C)C(=O)C(=O)NC1CC1` [Compound 490]: the Ki lay within 100 to 500 nM.

With `CCC[C@H](NC(=O)[C@@H]1C[C@]2(CC(c3cccc(Cl)c3)=NO2)CN1C(=O)[C@@H](NC(=O)CCC(C)=O)C(C)(C)C)C(=O)C(=O)NC1CC1` [Compound 44], the Ki was in the range of 100 to 500 nM.

`C=CCOC(=O)N[C@H](C(=O)N1C[C@@]2(CC(c3ccc(F)cc3)=NO2)C[C@H]1C(=O)N[C@@H](CCC)C(=O)C(=O)NC1CC1)C(C)(C)C` [Compound 154]: the Ki lay in the range of 100 to 500 nM.

In the case of `CCC[C@H](NC(=O)[C@@H]1C[C@]2(CC(c3ccccc3)=NO2)CN1C(=O)[C@@H](NC(=O)NCc1ccccc1)C(C)(C)C)C(=O)C(=O)NC1CC1` [Compound 107], the Ki lay in the range of 100 to 500 nM.

For `CCC[C@H](NC(=O)[C@@H]1C[C@]2(CC(c3cc(Cl)c(OC)cc3OC)=NO2)CN1C(=O)[C@@H](NC(=O)OCc1ccccc1)C(C)(C)C)C(=O)C(=O)NC1CC1` [Compound 110], the Ki is 100 to 500 nM.

Regarding `CCC[C@H](NC(=O)[C@@H]1C[C@]2(CC(c3cccc(Cl)c3)=NO2)CN1C(=O)[C@@H](NC(=O)CCn1ccnc1C)C(C)(C)C)C(=O)C(=O)NC1CC1` [Compound 237], the Ki is 100 to 500 nM.

Turning to `CCC[C@H](NC(=O)[C@@H]1C[C@]2(CC(c3cccc(Cl)c3)=NO2)CN1C(=O)[C@@H](NC(=O)CC1CCOCC1)C(C)(C)C)C(=O)C(=O)NC1CC1` [Compound 92], the Ki fell in the range of 100 to 500 nM.

Take `CCC[C@H](NC(=O)[C@@H]1C[C@]2(CC(c3ccc(C(C)C)cc3)=NO2)CN1C(=O)O[C@H]1CCOC1)C(=O)C(=O)NC1CC1` [Compound 405]: the Ki was above 500 nM.

Take `CCC[C@H](NC(=O)[C@@H]1C[C@]2(CC(c3cccc(Cl)c3)=NO2)CN1C(=O)[C@@H](NC(=O)NCc1cc(OC)c(OC)c(OC)c1)C(C)(C)C)C(=O)C(=O)NC1CC1` [Compound 259]: the Ki is 100 to 500 nM.

Turning to `CCC[C@H](NC(=O)[C@@H]1C[C@]2(CC(c3cccc(Cl)c3)=NO2)CN1C(=O)[C@@H](NC(=O)c1n[nH]c(=O)c2ccccc12)C(C)(C)C)C(=O)C(=O)NC1CC1` [Compound 381], the Ki lay in the range of 100 to 500 nM.

Regarding `CCCC1=NO[C@]2(C1)C[C@@H](C(=O)N[C@@H](CCC)C(=O)C(=O)NC1CC1)N(C(=O)[C@@H](NC(=O)[C@@H](NC(=O)c1cnccn1)C1CCCCC1)C(C)(C)C)C2` [Compound 400], the Ki was below 100 nM.

Take `CCC[C@H](NC(=O)[C@@H]1C[C@]2(CC(c3cccc(Cl)c3)=NO2)CN1C(=O)[C@@H](NC(=O)OCCF)C(C)(C)C)C(=O)C(=O)NC1CC1` [Compound 85]: the Ki was in the range of 100 to 500 nM.

On to `CCC[C@H](NC(=O)[C@@H]1C[C@]2(CC(c3ccc(F)c(C)c3)=NO2)CN1C(=O)O[C@H]1CCOC1)C(=O)C(=O)NC1CC1` [Compound 413], for which the Ki was above 500 nM.

Consider `CCC[C@H](NC(=O)[C@@H]1C[C@]2(CC(c3cccc(Cl)c3)=NO2)CN1C(=O)[C@@H](NC(=O)CC1=CCCCC1)C(C)(C)C)C(=O)C(=O)NC1CC1` [Compound 245], for which the Ki fell in the range of 100 to 500 nM.

As to `CCC[C@H](NC(=O)[C@@H]1C[C@]2(CC(c3ccc(C(F)(F)F)cc3)=NO2)CN1C(=O)O[C@H]1CCOC1)C(=O)C(=O)NC1CC1` [Compound 240], the Ki is above 500 nM.

Regarding `CCC[C@H](NC(=O)[C@@H]1C[C@]2(CC(C(=O)c3ccc(Cl)cc3)=NO2)CN1C(=O)[C@@H](NC(=O)O[C@H]1CCOC1)C(C)(C)C)C(=O)C(=O)NC1CC1` [Compound 364], the Ki was above 500 nM.

Turning to `CCC[C@H](NC(=O)[C@@H]1C[C@]2(CC(c3ccccc3)=NO2)CN1C(=O)[C@@H](NC(=O)OCc1ccccc1)C(C)(C)C)C(=O)C(=O)NC1CC1` [Compound 520], the Ki is above 500 nM.

Take `CCC[C@H](NC(=O)[C@@H]1C[C@]2(CC(c3cccc(Cl)c3)=NO2)CN1C(=O)[C@@H](NC(=O)OCCCc1ccccn1)C(C)(C)C)C(=O)C(=O)NC1CC1` [Compound 373]: the Ki was in the range of 100 to 500 nM.

As to `CCC[C@H](NC(=O)[C@@H]1C[C@]2(CC(c3cccc(Cl)c3)=NO2)CN1C(=O)[C@@H](NC(=O)c1cccc([C@@H](C)C#N)c1)C(C)(C)C)C(=O)C(=O)NC1CC1` [Compound 324], the Ki was above 500 nM.

`CCC[C@H](NC(=O)[C@@H]1C[C@]2(CC(c3cccc(Cl)c3)=NO2)CN1C(=O)[C@@H](NC(=O)Oc1ccc2c(c1)OCO2)C(C)(C)C)C(=O)C(=O)NC1CC1` [Compound 197]: the Ki was in the range of 100 to 500 nM.

Regarding `CCC[C@H](NC(=O)[C@@H]1C[C@]2(CC(Cc3ccccc3)=NO2)CN1C(=O)[C@@H](NC(=O)O[C@H]1CCOC1)C(C)(C)C)C(=O)C(=O)NC1CC1` [Compound 251], the Ki was above 500 nM.

Regarding `CCC[C@H](NC(=O)[C@@H]1C[C@]2(CC(c3cccc(Cl)c3)=NO2)CN1C(=O)[C@@H](NC(=O)NCc1ccccc1)C(C)(C)C)C(=O)C(=O)NC1CC1` [Compound 583], the Ki was 100 to 500 nM.

On to `CCC[C@H](NC(=O)[C@@H]1C[C@]2(CC(c3cccc(Cl)c3)=NO2)CN1C(=O)[C@@H](NC(=O)OCc1cc(F)ccc1F)C(C)(C)C)C(=O)C(=O)NC1CC1` [Compound 561], for which the Ki lay within 100 to 500 nM.

`CCC[C@H](NC(=O)[C@@H]1C[C@@]2(CC(c3cccc(C(F)(F)F)c3)=NO2)CN1C(=O)[C@@H](NC(=O)O[C@H]1CCOC1)C(C)(C)C)C(=O)C(=O)NC1CC1` [Compound 509]: the Ki is above 500 nM.

On to `CCC[C@H](NC(=O)[C@@H]1C[C@]2(CC(c3ccc4c(c3)OCO4)=NO2)CN1C(=O)[C@@H](NS(=O)(=O)c1cccc2ccccc12)C(C)(C)C)C(=O)C(=O)NC1CC1` [Compound 536], for which the Ki is above 500 nM.

Consider `CCC[C@H](NC(=O)[C@@H]1C[C@]2(CC(c3ccc(OC(F)(F)F)cc3)=NO2)CN1C(=O)O[C@H]1CCOC1)C(=O)C(=O)NC1CC1` [Compound 524], for which the Ki is above 500 nM.

With `CCC[C@H](NC(=O)[C@@H]1C[C@]2(CC(c3cccc(OC)c3)=NO2)CN1C(=O)[C@@H](NC(=O)CC1CCOCC1)C(C)(C)C)C(=O)C(=O)NC1CC1` [Compound 525], the Ki was above 500 nM.

`CCC[C@H](NC(=O)[C@@H]1C[C@]2(CC(c3cccc(Cl)c3)=NO2)CN1C(=O)[C@@H](NC(=O)OCCCc1cccnc1)C(C)(C)C)C(=O)C(=O)NC1CC1` [Compound 389]: the Ki was above 500 nM.

Turning to `CCC[C@H](NC(=O)[C@@H]1C[C@]2(CC(c3cccc(Cl)c3)=NO2)CN1C(=O)[C@@H](NC(=O)OCc1cccc(F)c1)C(C)(C)C)C(=O)C(=O)NC1CC1` [Compound 209], the Ki lay within 100 to 500 nM.

In the case of `CCC[C@H](NC(=O)[C@@H]1C[C@]2(CC(c3cc(C)c(OC)c(C)c3)=NO2)CN1C(=O)[C@@H](NC(=O)CC1CCOCC1)C(C)(C)C)C(=O)C(=O)NC1CC1` [Compound 572], the Ki fell in the range of 100 to 500 nM.

On to `CCC[C@H](NC(=O)[C@@H]1C[C@]2(CC(c3cccc(Cl)c3)=NO2)CN1C(=O)[C@@H](NC(=O)Cc1ccc(C)c(F)c1)C(C)(C)C)C(=O)C(=O)NC1CC1` [Compound 102], for which the Ki was in the range of 100 to 500 nM.

On to `CCC[C@H](NC(=O)[C@@H]1C[C@]2(CC(c3cccc(Cl)c3)=NO2)CN1C(=O)[C@@H](NC(=O)OCCc1ccsc1)C(C)(C)C)C(=O)C(=O)NC1CC1` [Compound 159], for which the Ki lay within 100 to 500 nM.

On to `CCC[C@H](NC(=O)[C@@H]1C[C@]2(CC(c3ccc(F)c(Cl)c3)=NO2)CN1C(=O)[C@@H](NC(=O)O[C@H]1CCOC1)C(C)(C)C)C(=O)C(=O)NC1CC1` [Compound 301], for which the Ki was in the range of 100 to 500 nM.

The values above are taken from patent publication US7964624B1, “Inhibitors of serine proteases” (priority 2005, dated 2011).
